Reference: patent publication US20110224226A1, “COMPOSITIONS AND METHODS FOR INCREASING BLOOD PLATELET LEVELS IN HUMANS” (AKARX, Inc., priority 2006, published 2011)

Assays:
[1] = in-vitro plasma protein binding, rats; format: in vitro ADME; details: rat, 0.05 to 50 μg/mL
Method: The in-vitro plasma protein binding of the drug of Formula I was independent of concentration over the concentration range of 0.05 to 50 μg/mL and was 87.2-89.1% in mice; 87.6-89.2% in rats; 88.3-92.0% in rabbits; […] in dogs; 97.0-97.6% in monkeys; and 96.3-96.6% in humans.

[2] = Example 2 multi-dose study: safety; format: in vivo, human; details: up to 20 mg daily for ten (10) to fourteen (14) days, healthy volunteers
Method: A double-blind, placebo-controlled, dose rising study was performed in healthy male and female volunteers. Each dose cohort received either placebo or active treatment as an oral suspension once daily for fourteen (14) consecutive days. The dose of study drug was prepared and administered as described in Example 1 above. The doses administered in this multiple dose study were based on the safety and tolerability assessment of the doses administered in Example 1.
Based on the results of Example 1, the starting dose was 3 mg. Based on the safety and tolerability results from Example 1, the dose was scheduled to be escalated to 10, 20, 50 and 100 mg per day for 14 consecutive days. Successive dose cohorts were not treated until the previous cohort completed 14 days of treatment and the safety follow-up visit on Day 21.

[3] = tested on: liver microsomal enzymes; assay: metabolism by dog liver microsomal enzymes; format: in vitro ADME

fraction unbound [1]: 0.108 to 0.124
metabolism by liver microsomal enzymes [3]: does not appear to be metabolized
SMILES: O=C(Nc1nc(-c2cc(Cl)cs2)c(N2CCN(C3CCCCC3)CC2)s1)c1cnc(N2CCC(C(=O)O)CC2)c(Cl)c1 [Formula I, 1-(3-chloro-5-{[4-(4-chlorothiophen-2-yl)-5-(4-cyclohexylpiperazin-1-yl)thiazol-2-yl]carbamoyl}pyridin-2-yl)piperadine-4-carboxylic acid]
tolerability (drug-related clinical or laboratory adverse experiences) [2]: well tolerated
